Measurements: patent US20230310428A1, “EGFR INHIBITOR AND PREPARATION METHOD AND USE THEREOF” (HONGYUN BIOTECH CO., LTD., priority 2020, published 2023)
Like-named read-outs stand apart in the source and are kept apart here.

What was measured:
Assay in all cases: Growth inhibitory activity of compounds on BaF3 cell lines stably transfected with kinase (MTS, 48 h)
Type in all cases: cell-based
[1] = molecular target: T1, various mutants of kinase EGFR (BaF3 cell lines stably transfected with kinase) (Homo sapiens, UniProt P00533, L858R)
T1 construct: expressed in transfected cells; host or cells: BaF3
Experimental: (§1) The activity of compounds against various mutants of kinase EGFR was evaluated by their effect of inhibiting growth of BaF3 cell lines stably transfected with kinase. The specific test method was given as follows:
(§2) 1) Culture medium: DMEM (Dulbecco’s modified eagle medium) or RPMI 1640 (containing 10% fetal bovine serum, 100 µg/mL ampicillin, 100 µg/mL streptomycin).
(§3) 2) Reagent: MTS reaction solution (containing 2 mg/mL of MTS [3-(4,5-dimethylthiazol-2-yl)-5-(3-carboxymethoxyphenyl)-2-(4-sulfophenyl)-2H-tetrazoliu m, inner Salt]; 100 µg/mL of PES ([…])).
(§4) 3) Compound test: cells were incubated into a 96-well culture plate, the volume of cytosol was 90 µL, and then 10 µL of the compound at each gradient concentration was added. That is, the highest concentration was 10 µM, which was diluted stepwise by ⅓, and 8 concentration points were set in total; 0.1% DMSO (dimethyl sulfoxide) was contained in the system. The cell plate with uniformly mixed compound was cultured in a cell culture incubator (37° C.; 5% CO2) for 48 h, then 20 µL of MTS reaction solution was added, uniformly mixed and incubated in the cell culture incubator (37° C.; 5% CO2) for 1-4 h. OD values at 490 nm were measured by a microplate reader (VARIOSKAN FLASH, Thermo). Two parallels were set in each group of experiments, with 0.1% (a final concentration) DMSO as a negative control, and a culture medium without cells and compounds as a blank control. The cell growth inhibition rate was calculated by the following formula: […]
(§5) 4) IC50 calculation: The semi-inhibitory concentration of the compounds acting on cells was calculated using GradPad Prism 5 software according to the measured cell growth inhibition rate.

[2] = molecular target: T2, various mutants of kinase EGFR (BaF3 cell lines stably transfected with kinase) (Homo sapiens, UniProt P00533, C797S/L858R/T790M)
T2 construct: expressed in transfected cells; host or cells: BaF3
Experimental: as §1, §2, §3, §4, §5

[3] = molecular target: T3, various mutants of kinase EGFR (BaF3 cell lines stably transfected with kinase) (Homo sapiens, UniProt P00533, L858R/T790M)
T3 construct: expressed in transfected cells; host or cells: BaF3
Experimental: as §1, §2, §3, §4, §5

[4] = molecular target: T4, various mutants of kinase EGFR (BaF3 cell lines stably transfected with kinase) (Homo sapiens, UniProt P00533, T790M/C797S, form not given)
T4 construct: other: BaF3 cells stably transfected with EGFR Δ19Del/T790M/C797S; MTS, 48; other: BaF3 cell line stably transfected with EGFR Δ19Del/T790M/C7
Experimental: as §1, §2, §3, §4, §5

[5] = molecular target: T5, various mutants of kinase EGFR (BaF3 cell lines stably transfected with kinase) (Homo sapiens, UniProt P00533, T790M, form not given)
T5 construct: other: BaF3 cells stably transfected with EGFR Δ19Del/T790M; MTS, 48 h; other: BaF3 cell line stably transfected with EGFR Δ19Del/T790M; MTS, 48
Experimental: as §1, §2, §3, §4, §5

[6] = molecular target: T6, various mutants of kinase EGFR (BaF3 cell lines stably transfected with kinase) (Homo sapiens, UniProt P00533)
T6 construct: other: BaF3 cells stably transfected with EGFR Δ19Del; MTS, 48 h; other: BaF3 cell line stably transfected with EGFR Δ19Del
Experimental: as §1, §2, §3, §4, §5

[7] = BaF3 cells stably transfected with EGFR L858R, read-out: IC50, growth inhibition, L858R
[8] = BaF3 cells stably transfected with EGFR L858R/T790M/C797S, read-out: IC50, growth inhibition, L858R/T790M/C797S
[9] = BaF3 cells stably transfected with EGFR L858R/T790M, read-out: IC50, growth inhibition, L858R/T790M
[10] = BaF3 cells stably transfected with EGFR Δ19Del/T790M/C797S, read-out: IC50, growth inhibition, Δ19Del/T790M/C797S
[11] = BaF3 cells stably transfected with EGFR Δ19Del/T790M, read-out: IC50, growth inhibition, Δ19Del/T790M
[12] = BaF3 cells stably transfected with EGFR Δ19Del, read-out: IC50, growth inhibition, Δ19Del
[13] = BaF3 cell line stably transfected with EGFR L858R, read-out: L858R growth inhibitory activity IC50
[14] = BaF3 cell line stably transfected with EGFR L858R/T790M/C797S, read-out: L858R/T790M/ C797S growth inhibitory activity IC50
[15] = BaF3 cell line stably transfected with EGFR L858R/T790M, read-out: L858R/ T790M growth inhibitory activity IC50
[16] = BaF3 cell line stably transfected with EGFR Δ19Del/T790M/C797S, read-out: Δ19Del/T790M/ C797S growth inhibitory activity IC50
[17] = BaF3 cell line stably transfected with EGFR Δ19Del/T790M, read-out: Δ19Del/ T790M growth inhibitory activity IC50
[18] = BaF3 cell line stably transfected with EGFR Δ19Del, read-out: Δ19Del growth inhibitory activity IC50

T1 sequence (P00533 25-1210 L858R): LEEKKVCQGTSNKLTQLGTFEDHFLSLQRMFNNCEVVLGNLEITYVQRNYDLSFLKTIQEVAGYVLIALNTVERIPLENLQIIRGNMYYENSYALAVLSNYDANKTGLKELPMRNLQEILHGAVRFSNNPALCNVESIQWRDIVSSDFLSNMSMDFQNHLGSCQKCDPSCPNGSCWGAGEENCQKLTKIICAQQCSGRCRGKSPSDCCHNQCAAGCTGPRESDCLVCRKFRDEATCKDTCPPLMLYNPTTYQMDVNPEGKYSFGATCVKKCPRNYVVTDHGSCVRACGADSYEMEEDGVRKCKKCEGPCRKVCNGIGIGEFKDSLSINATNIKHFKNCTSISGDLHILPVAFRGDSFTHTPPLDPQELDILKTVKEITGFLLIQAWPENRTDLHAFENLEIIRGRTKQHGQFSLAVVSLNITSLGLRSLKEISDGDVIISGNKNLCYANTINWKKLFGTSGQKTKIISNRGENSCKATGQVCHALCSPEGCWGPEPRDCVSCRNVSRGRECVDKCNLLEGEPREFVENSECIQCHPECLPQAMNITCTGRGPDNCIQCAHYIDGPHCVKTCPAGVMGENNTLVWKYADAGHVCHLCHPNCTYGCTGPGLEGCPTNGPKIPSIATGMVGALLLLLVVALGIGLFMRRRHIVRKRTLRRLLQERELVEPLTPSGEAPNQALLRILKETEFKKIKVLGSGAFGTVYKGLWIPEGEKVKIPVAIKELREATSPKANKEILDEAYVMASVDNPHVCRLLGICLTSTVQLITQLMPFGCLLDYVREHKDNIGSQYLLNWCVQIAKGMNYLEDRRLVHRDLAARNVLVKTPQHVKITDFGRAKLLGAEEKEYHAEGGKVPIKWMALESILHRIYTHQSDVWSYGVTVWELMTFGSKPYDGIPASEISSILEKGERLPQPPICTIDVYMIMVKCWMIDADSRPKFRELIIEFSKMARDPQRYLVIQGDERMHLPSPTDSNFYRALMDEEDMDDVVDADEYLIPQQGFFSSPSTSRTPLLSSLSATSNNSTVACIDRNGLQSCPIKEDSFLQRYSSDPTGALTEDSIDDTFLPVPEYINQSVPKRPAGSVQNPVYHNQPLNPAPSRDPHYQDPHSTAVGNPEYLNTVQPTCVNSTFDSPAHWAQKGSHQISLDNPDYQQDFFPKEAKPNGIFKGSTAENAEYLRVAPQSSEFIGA
T4 sequence (P00533 with tags, fused parts or gaps DEL746-750/T790M/C797S, form open): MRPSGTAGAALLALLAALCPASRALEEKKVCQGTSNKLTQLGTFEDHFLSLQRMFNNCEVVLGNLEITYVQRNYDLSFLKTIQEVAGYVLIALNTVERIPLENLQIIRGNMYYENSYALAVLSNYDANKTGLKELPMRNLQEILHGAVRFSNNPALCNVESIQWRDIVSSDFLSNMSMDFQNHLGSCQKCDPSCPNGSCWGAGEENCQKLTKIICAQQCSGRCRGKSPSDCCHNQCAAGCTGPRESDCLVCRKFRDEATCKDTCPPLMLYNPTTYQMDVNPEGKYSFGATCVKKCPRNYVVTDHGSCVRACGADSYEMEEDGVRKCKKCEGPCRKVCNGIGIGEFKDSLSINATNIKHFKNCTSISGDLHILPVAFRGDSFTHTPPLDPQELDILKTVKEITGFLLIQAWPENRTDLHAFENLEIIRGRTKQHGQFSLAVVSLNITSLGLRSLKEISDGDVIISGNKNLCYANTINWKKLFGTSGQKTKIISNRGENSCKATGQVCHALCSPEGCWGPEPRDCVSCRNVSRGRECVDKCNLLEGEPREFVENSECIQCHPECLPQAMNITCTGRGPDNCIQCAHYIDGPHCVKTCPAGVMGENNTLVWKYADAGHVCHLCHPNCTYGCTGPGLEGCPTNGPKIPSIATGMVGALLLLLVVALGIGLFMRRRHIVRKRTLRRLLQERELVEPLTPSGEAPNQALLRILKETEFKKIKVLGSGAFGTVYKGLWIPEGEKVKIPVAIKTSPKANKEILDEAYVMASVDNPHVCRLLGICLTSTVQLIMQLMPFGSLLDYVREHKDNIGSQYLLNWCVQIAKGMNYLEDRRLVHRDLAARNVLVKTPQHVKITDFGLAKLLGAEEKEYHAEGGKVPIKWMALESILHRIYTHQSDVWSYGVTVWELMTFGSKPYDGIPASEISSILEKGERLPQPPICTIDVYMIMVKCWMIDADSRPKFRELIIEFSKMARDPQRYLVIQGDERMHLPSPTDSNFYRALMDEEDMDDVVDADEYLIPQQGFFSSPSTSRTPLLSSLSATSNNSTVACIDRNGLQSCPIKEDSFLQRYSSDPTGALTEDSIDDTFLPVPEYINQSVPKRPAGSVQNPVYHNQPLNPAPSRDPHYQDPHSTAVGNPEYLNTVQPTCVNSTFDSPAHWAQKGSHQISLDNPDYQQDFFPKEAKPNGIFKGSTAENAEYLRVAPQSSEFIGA
T3 sequence (P00533 25-1210 T790M/L858R): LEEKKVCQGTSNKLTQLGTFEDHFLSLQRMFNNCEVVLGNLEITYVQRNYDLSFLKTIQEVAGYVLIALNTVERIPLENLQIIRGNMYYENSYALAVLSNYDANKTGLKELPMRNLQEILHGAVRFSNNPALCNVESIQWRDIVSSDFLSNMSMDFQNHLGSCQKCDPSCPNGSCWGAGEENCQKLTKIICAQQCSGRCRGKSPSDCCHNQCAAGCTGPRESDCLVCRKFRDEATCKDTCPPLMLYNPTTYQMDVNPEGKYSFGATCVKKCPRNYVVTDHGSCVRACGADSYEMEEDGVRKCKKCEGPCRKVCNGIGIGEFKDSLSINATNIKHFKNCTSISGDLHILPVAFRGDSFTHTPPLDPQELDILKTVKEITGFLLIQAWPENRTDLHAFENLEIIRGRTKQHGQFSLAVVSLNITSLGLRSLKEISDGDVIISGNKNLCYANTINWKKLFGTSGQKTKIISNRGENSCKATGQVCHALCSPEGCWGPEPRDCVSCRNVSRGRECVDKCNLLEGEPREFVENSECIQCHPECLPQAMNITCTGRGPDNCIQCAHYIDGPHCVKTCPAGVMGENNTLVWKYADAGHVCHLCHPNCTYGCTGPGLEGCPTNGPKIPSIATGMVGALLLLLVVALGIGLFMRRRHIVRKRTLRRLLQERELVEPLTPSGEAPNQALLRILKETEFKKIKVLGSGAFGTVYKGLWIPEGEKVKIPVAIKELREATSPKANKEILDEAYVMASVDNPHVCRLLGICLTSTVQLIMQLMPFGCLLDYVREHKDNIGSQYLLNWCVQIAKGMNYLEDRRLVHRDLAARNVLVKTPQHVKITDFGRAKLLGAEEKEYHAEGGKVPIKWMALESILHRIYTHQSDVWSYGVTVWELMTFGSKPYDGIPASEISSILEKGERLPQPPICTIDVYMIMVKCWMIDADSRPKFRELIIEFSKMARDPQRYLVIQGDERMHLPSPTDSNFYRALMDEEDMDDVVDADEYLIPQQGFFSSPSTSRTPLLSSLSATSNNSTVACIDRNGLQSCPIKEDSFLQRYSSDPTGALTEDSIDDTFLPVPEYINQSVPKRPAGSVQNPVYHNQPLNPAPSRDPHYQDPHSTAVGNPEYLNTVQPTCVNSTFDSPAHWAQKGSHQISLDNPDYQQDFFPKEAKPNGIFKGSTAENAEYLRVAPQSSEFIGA
T2 sequence (P00533 25-1210 T790M/C797S/L858R): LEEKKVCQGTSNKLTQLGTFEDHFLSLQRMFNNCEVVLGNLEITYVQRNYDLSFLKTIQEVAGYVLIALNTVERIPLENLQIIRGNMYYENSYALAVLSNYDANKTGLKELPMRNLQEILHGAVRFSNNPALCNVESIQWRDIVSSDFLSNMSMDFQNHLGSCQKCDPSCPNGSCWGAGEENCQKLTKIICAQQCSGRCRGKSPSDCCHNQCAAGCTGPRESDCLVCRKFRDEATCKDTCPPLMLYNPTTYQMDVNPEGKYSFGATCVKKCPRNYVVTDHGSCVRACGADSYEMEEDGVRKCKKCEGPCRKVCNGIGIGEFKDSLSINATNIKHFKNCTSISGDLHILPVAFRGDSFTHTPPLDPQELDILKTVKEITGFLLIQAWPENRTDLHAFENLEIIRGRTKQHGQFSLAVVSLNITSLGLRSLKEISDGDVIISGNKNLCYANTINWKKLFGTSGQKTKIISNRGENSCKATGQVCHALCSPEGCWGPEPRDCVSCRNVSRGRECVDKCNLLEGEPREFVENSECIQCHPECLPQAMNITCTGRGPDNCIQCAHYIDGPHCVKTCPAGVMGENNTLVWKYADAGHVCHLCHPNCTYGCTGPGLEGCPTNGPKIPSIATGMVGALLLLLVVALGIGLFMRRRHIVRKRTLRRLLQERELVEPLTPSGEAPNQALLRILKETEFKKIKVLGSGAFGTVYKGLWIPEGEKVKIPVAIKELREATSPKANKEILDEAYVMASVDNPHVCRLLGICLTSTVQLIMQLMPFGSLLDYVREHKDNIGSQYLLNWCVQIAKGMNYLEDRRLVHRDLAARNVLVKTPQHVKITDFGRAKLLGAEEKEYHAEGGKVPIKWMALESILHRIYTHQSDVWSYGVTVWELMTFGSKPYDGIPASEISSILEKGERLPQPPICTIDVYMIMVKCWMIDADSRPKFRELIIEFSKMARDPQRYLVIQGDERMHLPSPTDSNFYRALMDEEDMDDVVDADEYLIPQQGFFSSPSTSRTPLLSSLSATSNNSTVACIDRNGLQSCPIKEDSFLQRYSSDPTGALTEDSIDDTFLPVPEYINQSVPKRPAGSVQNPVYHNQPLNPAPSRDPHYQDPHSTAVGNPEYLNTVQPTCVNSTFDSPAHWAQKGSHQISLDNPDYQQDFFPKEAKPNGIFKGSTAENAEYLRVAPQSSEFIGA

SMILES	IC50 [1, 7] [nM]	IC50 [2, 8] [nM]	IC50 [3, 9] [nM]	IC50 [4, 10] [nM]	IC50 [5, 11] [nM]	IC50 [6, 12] [nM]	IC50 [1, 13] [nM]	IC50 [2, 14] [nM]	IC50 [3, 15] [nM]	IC50 [4, 16] [nM]	IC50 [5, 17] [nM]	IC50 [6, 18] [nM]
CCc1cc(Nc2ncc(Cl)c(Nc3ccc4nccnc4c3N(C)S(C)(=O)=O)n2)c(OC)cc1N1CCC(N2CCN(C)CC2)CC1 [Compound I-20]	≤ 50	≤ 50	≤ 50	≤ 50	≤ 50	≤ 50						
COc1nc(N2CCC(N3CCN(C)CC3)CC2)ccc1Nc1ncc(Cl)c(Nc2ccc3nccnc3c2N(C)S(C)(=O)=O)n1 [Compound I-164]	50 to 500	50 to 500	50 to 500	50 to 500	500 to 2500	500 to 2500						
COc1nc(N2CCC(N3CCN(C)CC3)CC2)ccc1Nc1ncc(Br)c(Nc2ccc3nccnc3c2N(C)S(=O)(=O)C2CC2)n1 [Compound I-216]	500 to 2500	50 to 500	500 to 2500	50 to 500	500 to 2500	500 to 2500						
CCc1cc(Nc2ncc(Br)c(Nc3ccc4nccnc4c3N(CC)S(C)(=O)=O)n2)c(OC)cc1N1CCC(N(C)C)C1 (stereo not drawn) [Compound I-98]	≤ 50	≤ 50	≤ 50	≤ 50	≤ 50	50 to 500						
COc1cc(N2CCC(N3CCN(C)CC3)CC2)c(C)cc1Nc1ncc(Cl)c(Nc2ccc3nccnc3c2N(C2CC2)S(C)(=O)=O)n1 [Compound I-159]	≤ 50	≤ 50	≤ 50	≤ 50	≤ 50	≤ 50						
CCc1cc(Nc2ncc(Br)c(Nc3ccc4nccnc4c3N(CC)S(C)(=O)=O)n2)c(OC)cc1N1CCC(N2CCN(C)CC2)CC1 [Compound I-95]	≤ 50	≤ 50	≤ 50	≤ 50	≤ 50	≤ 50						
CCc1cc(Nc2ncc(Cl)c(Nc3ccc4nccnc4c3N(C3CC3)S(C)(=O)=O)n2)c(OC)nc1N1CCC(N2CCN(C)CC2)CC1 [Compound I-241]	≤ 50	50 to 500	≤ 50	≤ 50	≤ 50	≤ 50						
COc1cc(N2CCC(N3CCN(C)CC3)CC2)c(C)cc1Nc1ncc(Cl)c(Nc2ccc3nccnc3c2N(C)S(C)(=O)=O)n1 [Compound I-19]	≤ 50	≤ 50	≤ 50	≤ 50	≤ 50	≤ 50						
CCN(c1c(Nc2nc(Nc3cc(C)c(N4CCC(N(C)C)CC4)cc3OC)ncc2Cl)ccc2nccnc12)S(C)(=O)=O [Compound I-230]	≤ 50	≤ 50	≤ 50	≤ 50	≤ 50	≤ 50						
CCS(=O)(=O)N(C)c1c(Nc2nc(Nc3cc(C)c(N4CCC(N5CCN(C)CC5)CC4)cc3OC)ncc2Cl)ccc2nccnc12 [Compound I-114]	≤ 50	≤ 50	≤ 50	≤ 50	≤ 50	≤ 50						
CCc1cc(Nc2ncc(Br)c(Nc3ccc4nccnc4c3N(C)S(C)(=O)=O)n2)c(OC)cc1N1CCC(N2CCN(C)CC2)CC1 [Compound I-3]	≤ 50	≤ 50	≤ 50	≤ 50	≤ 50	≤ 50						
COc1cc(N2CCC(N3CCN(C)CC3)CC2)c(C)cc1Nc1ncc(C(F)(F)F)c(Nc2ccc3nccnc3c2N(C)S(C)(=O)=O)n1 [Compound I-34]	≤ 50	≤ 50	≤ 50	≤ 50	≤ 50	≤ 50						

More lines, now with the values ahead:

IC50 [1, 7] [nM]	IC50 [2, 8] [nM]	IC50 [3, 9] [nM]	IC50 [4, 10] [nM]	IC50 [5, 11] [nM]	IC50 [6, 12] [nM]	IC50 [1, 13] [nM]	IC50 [2, 14] [nM]	IC50 [3, 15] [nM]	IC50 [4, 16] [nM]	IC50 [5, 17] [nM]	IC50 [6, 18] [nM]	SMILES
						≤ 50	≤ 50	≤ 50	≤ 50	≤ 50	≤ 50	CCc1cc(Nc2ncc(OC)c(Nc3ccc4nccnc4c3N(C)S(C)(=O)=O)n2)c(OC)nc1N1CCC(N2CCN(C)CC2)CC1 [Compound I-334]
						≤ 50	≤ 50	≤ 50	≤ 50	≤ 50	≤ 50	COc1cc(N2CCC(N3CCN(C)CC3)CC2)c(C2CC2)cc1Nc1ncc(Br)c(Nc2ccc3nccnc3c2NS(C)(=O)=O)n1 [Compound I-407]
50 to 500	≤ 50	≤ 50	50 to 500	≤ 50	50 to 500							CCN(c1c(Nc2nc(Nc3cc(C)c(N4CCC(N(C)C)C4)cc3OC)ncc2Br)ccc2nccnc12)S(C)(=O)=O (stereo not drawn) [Compound I-302]
≤ 50	≤ 50	≤ 50	≤ 50	≤ 50	≤ 50							CCc1cc(Nc2ncc(C3CC3)c(Nc3ccc4nccnc4c3N(C)S(C)(=O)=O)n2)c(OC)cc1N1CCC(N(C)C)CC1 [Compound I-273]
≤ 50	≤ 50	≤ 50	≤ 50	≤ 50	≤ 50							CCc1cc(Nc2ncc(C)c(Nc3ccc4nccnc4c3N(C)S(C)(=O)=O)n2)c(OC)cc1N1CCC(N(C)C)C1 (stereo not drawn) [Compound I-280]
						50 to 500	≤ 50	50 to 500	≤ 50	50 to 500	50 to 500	CCc1cc(Nc2ncc(Br)c(Nc3ccc4nccnc4c3N(C)S(C)(=O)=O)n2)c(OC)cc1N(C)CCN(C)C [Compound I-392]
						500 to 2500	500 to 2500	50 to 500	500 to 2500	500 to 2500	500 to 2500	CCc1cc(Nc2ncc(Br)c(Nc3ccc4nccnc4c3NS(C)(=O)=O)n2)c(OC)cc1C(=O)N1CCC(N2CCN(C)CC2)CC1 [Compound I-361]
						≤ 50	≤ 50	≤ 50	≤ 50	≤ 50	≤ 50	CCc1cc(Nc2ncc(OC)c(Nc3ccc4nccnc4c3N(C)S(C)(=O)=O)n2)c(OC)cc1N1CCC(N(C)C)C1 (stereo not drawn) [Compound I-335]
50 to 500	50 to 500	50 to 500	≤ 50	50 to 500	50 to 500							CCS(=O)(=O)N(C)c1c(Nc2nc(Nc3ccc(N4CCC(N5CCN(C)CC5)CC4)cc3OC)ncc2Cl)ccc2nccnc12 [Compound I-294]
						50 to 500	≤ 50	50 to 500	≤ 50	50 to 500	50 to 500	CCc1cc(Nc2ncc(Br)c(Nc3ccc4nccnc4c3N(C)S(C)(=O)=O)n2)c(OC)cc1N1CCC(N2CCN(C)CC2)CC1 [Compound I-396]
						≤ 50	≤ 50	≤ 50	≤ 50	≤ 50	≤ 50	COc1ccc(N2CCC(O)CC2)cc1Nc1ncc(Br)c(Nc2ccc3nccnc3c2N(C)S(=O)(=O)C2CC2)n1 [Compound I-375]
